Measured values published in ChEMBL document CHEMBL1201862, “PubChem BioAssay data set” (2004).
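Cultured in 96-well plates, cells were exposed to test compound for 48 hours across five concentrations. GI50 is the concentration that inhibits growth by half.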 Active and inactive are the calls of the source. Cut-off read from the data, not from the text of the source: active = GI50 up to about 1.1 µM and inactive = higher.

What was measured:
Assay in all cases: DTP human tumour cell line panel, 48 h
SNB-19 = system: SNB-19
OVCAR-4 = system: OVCAR-4
UACC-62 = system: UACC-62
786-0 = system: 786-0
NCI-H522 = system: NCI-H522
UO-31 = system: UO-31
IGROV-1 = system: IGROV-1
CCRF-CEM = system: CCRF-CEM
SF-268 = system: SF-268
MDA-MB-435 = system: MDA-MB-435
COLO 205 = system: COLO 205
SK-MEL-5 = system: SK-MEL-5
MCF7 = system: MCF7
RPMI-8226 = system: RPMI-8226
SK-MEL-2 = system: SK-MEL-2
HL-60 = system: HL-60
A498 = system: A498
TK-10 = system: TK-10
HT-29 = system: HT-29
M14 = system: M14

| Compound | GI50 (SNB-19) | GI50 (OVCAR-4) | GI50 (UACC-62) | GI50 (786-0) | GI50 (NCI-H522) | GI50 (UO-31) | GI50 (IGROV-1) | GI50 (CCRF-CEM) | GI50 (SF-268) | GI50 (MDA-MB-435) | GI50 (COLO 205) | GI50 (SK-MEL-5) | GI50 (MCF7) | GI50 (RPMI-8226) | GI50 (SK-MEL-2) | GI50 (HL-60) | GI50 (A498) | GI50 (TK-10) | GI50 (HT-29) | GI50 (M14) |
| --- | --- | --- | --- | --- | --- | --- | --- | --- | --- | --- | --- | --- | --- | --- | --- | --- | --- | --- | --- | --- |
| O=C1c2ccccc2C(=O)c2c1oc(=O)c1ccccc21 | 8.75 µM (inactive) | 1.08 µM (active) | 4 µM (inactive) | 5.35 µM (inactive) | 4.07 µM (inactive) | 5.22 µM (inactive) | 3.73 µM (inactive) | 1.93 µM (inactive) | 4.34 µM (inactive) | 1.06 µM (active) | 9.71 µM (inactive) | 1.29 µM (inactive) | 2.21 µM (inactive) | 3.63 µM (inactive) | 4.84 µM (inactive) | 0.664 µM (active) | 9.82 µM (inactive) | 8.89 µM (inactive) | 1.4 µM (inactive) | 6.05 µM (inactive) |
| O=C(c1ccccc1Cl)n1oc2ccccc2c1=O | > 100 µM (inactive) | > 100 µM (inactive) | > 100 µM (inactive) | 77.1 µM (inactive) | 13.8 µM (inactive) | > 100 µM (inactive) | 69.2 µM (inactive) | 27.5 µM (inactive) | > 100 µM (inactive) | > 100 µM (inactive) | 35.7 µM (inactive) | 82.4 µM (inactive) | 51.1 µM (inactive) | 28.1 µM (inactive) | > 100 µM (inactive) | 18 µM (inactive) | > 100 µM (inactive) | > 100 µM (inactive) | 60.4 µM (inactive) | > 100 µM (inactive) |
